US5700838A, “Hydroxamic acid derivatives as metalloproteinase inhibitors” (British Biotech Pharmaceuticals Limited, priority 1992, dated 1997)
≈ marks a conversion by molar mass, not a printed value. Where two headings read alike, the source gives them in different places.

Key:
[1] = test system: adjuvant-induced arthritis; assay: Adjuvant-induced arthritis model (hindpaw swelling); type: in vivo, male Lewis rats; details: b.i.d. days 13 to 17, Example 1 dosed at 10 mg/kg
Method: The activities of the compound of example 1 above and comparison compound C1 (see Biological Example A above) were assessed in an adjuvant-induced arthritis model. Adjuvant arthritis was produced in male Lewis rats (Charles River) by a single intradermal injection of 0.75 mg of M. butyricum in light paraffin oil (Freunds complete adjuvant--FCA) into the base of the tail. The "secondary" lesion occurs after a delay of 10 days, and is characterised by inflammation of the […] volumes were measured plethysmographically by water displacement. The test compound was dosed b.i.d. from days 13 to 17. Paw volume on day 20 was measured and compared to that on day 13. The experiment was terminated on day 23.

[2] = test system: HOSP1.P mammary carcinoma cells; assay: Lung colonisation assay, rat mammary carcinoma model; type: in vivo
Method: The compound of example 1 above was tested for activity in vivo in a rat mammary carcinoma model. A lung colonisation assay was performed in order to determine whether the compound of example 1 above is effective in inhibiting lung colonisation by circulating HOSP1.P mammary carcinoma cells after oral administration.
HOSP1.P cells (1×10^5 cells/animal) were administered to two groups of 12 rats by injection into the jugular vein. The product of example 1 was administered p.o. to one group at 30 mg/kg at -4, +1, +6, +24 and +72 hours relative to tumor cell inoculation at 0 hours. The second (control) group received only vehicle (p.o.) by the same schedule. Animals were killed after 34 days. Lungs were removed and individual tumors counted after 24 hours fixation in Methacarn. […] (p<0.01, Mann-Whitney, two tailed).

[3] = Blood concentration over time after oral gavage in rats, determined as collagenase inhibitory activity of extracts; details: for AUC (0-6 h) in number of IC50's × hours: oral gavage, male rats, Example 1: average of two results; for AUC(0-t) at 6 h / Tmax: rat, po
Method: (§1) The concentration over time of compounds of the invention in the blood of laboratory animals following administration of the test compounds was measured.
(§2) Test compounds were administered by gavage to 6 male rats (300 g) per treatment group. Blood samples were removed by tail venepuncture at 0.5, 1.0, 2.0, 6.0 and 24 hours post administration. 0.4 ml of blood was placed into 4.5 ml tubes containing 0.1 ml acid citrate dextrose (ACD) as anti-coagulant. For extraction, 3 ml methanol was added and the precipitated blood pelletted by centrifugation (30 min at 3000 rpm). A 2 ml aliquot of supernatant was removed and concentrated by lyophilisation. The extract was redissolved in 200 μl DMSO and a 10 μl aliquot assayed for collagenase inhibitory activity.

stromelysin [4] = target: T1, stromelysin (Homo sapiens, UniProt P08254); assay: biochemical
T1 sequence (P08254 100-477): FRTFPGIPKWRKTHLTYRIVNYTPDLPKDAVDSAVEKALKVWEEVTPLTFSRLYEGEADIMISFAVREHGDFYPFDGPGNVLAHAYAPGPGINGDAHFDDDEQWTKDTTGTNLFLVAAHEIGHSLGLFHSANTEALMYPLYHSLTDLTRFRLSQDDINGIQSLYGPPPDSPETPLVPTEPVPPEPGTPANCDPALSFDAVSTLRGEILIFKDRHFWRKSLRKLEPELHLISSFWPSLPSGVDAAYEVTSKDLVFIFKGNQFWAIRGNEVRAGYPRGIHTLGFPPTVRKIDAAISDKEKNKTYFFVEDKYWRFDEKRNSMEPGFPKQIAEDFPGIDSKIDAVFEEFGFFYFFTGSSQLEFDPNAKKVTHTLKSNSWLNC
From the text: (§3) The casein was acetylated ^14 C casein prepared by the method of Cawston et al (ibid).

[5] = Aqueous solubility at ambient temperature; type: physicochemical; details: in water
Method: The solubilities of compounds of the invention in water at ambient temperature were measured, and compared with comparison compounds C1 and C2 (identified in Biological Example A above).

[6] = test system: TNF α release from U937 cells; assay: Inhibition of PMA-stimulated TNF α release from U937 cells (ELISA); type: cell-based; details: Homo sapiens, read-out: IC50 for release of TNF α (average concentration inhibiting release by 50% relative to control)
collagenase [7] = target: T2, collagenase (Homo sapiens, UniProt P03956); assay: biochemical
T2 sequence (P03956 100-469): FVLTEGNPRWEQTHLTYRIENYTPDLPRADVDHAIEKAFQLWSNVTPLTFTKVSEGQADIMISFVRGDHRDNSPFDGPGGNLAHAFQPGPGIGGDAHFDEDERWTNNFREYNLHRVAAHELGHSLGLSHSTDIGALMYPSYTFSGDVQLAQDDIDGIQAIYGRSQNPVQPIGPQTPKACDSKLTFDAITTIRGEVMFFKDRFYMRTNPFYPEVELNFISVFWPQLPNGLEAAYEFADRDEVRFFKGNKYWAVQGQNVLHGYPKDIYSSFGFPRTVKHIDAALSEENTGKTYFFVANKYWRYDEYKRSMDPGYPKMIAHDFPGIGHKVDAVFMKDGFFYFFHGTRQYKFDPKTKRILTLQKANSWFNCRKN
From the text: (§4) The samples were centrifuged to sediment undigested collagen, and an aliquot of the radioactive supernatant removed for assay on a scintillation counter as a measure of hydrolysis.

[8] = rat, in vivo, po, 360 min
Method: as §1, §2

in vivo = details: rat, po
Method: as §1, §2

collagenase [9] = target: T2, collagenase; details: read-out: Collagenase IC50; 37°, 16 hours, pH 7.5
From the text: as §4

stromelysin [10] = target: T1, stromelysin; details: read-out: Stromelysin IC50; 37°, 16 hours, pH 7.5
From the text: as §3

[11] = U-937, U937 cells, PMA 50 nM, 18 hours, 37° C.

IC50 (stromelysin [4])	solubility [5]	IC50 (collagenase [7])	Structure (SMILES)	further results
60 nM	100 µg/mL (≈ 269 µM)		CNC(=O)[C@H](CC1CCCCC1)NC(=O)[C@H](CC(C)C)[C@H](O)C(=O)NO [Example 1, N^2-[3S-Hydroxy-4-(N-hydroxyamino)-2R-isobutylsuccinyl]-L-cyclohexyl alanine-N^1 methylamide]	reduction in swelling relative to control (paw volume day 20 vs day 13) [1]: statistically significant (p<0.01) reduction in swelling relative to control; Lung Colony Number, Mean ([2]; 30 mg/kg p.o. at -4, +1, +6, +24, +72 hours, 34 days, control mean 70.50): 38.91; Lung Colony Number, Median ([2]; 30 mg/kg p.o. at -4, +1, +6, +24, +72 hours, 34 days, control median 71.50, p <0.01): 38.50; extrapulmonary tumors ([2]; 30 mg/kg p.o., 34 days): No extrapulmonary tumors were found; inhibition of lung colonisation relative to control group ([2]; 30 mg/kg p.o., p<0.01, Mann-Whitney, two tailed): significant inhibition of lung colonisation relative to the control group; AUC (0-6 h) in number of IC50's × hours [3]: 46.2 n IC50 's × h; AUC(0-t) at 6 h [3]: 143 ng·h/mL; Tmax [3]: 30 min; IC50 [6, 11]: < 50000 nM
200 nM	13100 µg/mL (≈ 29900 µM)	30 nM	CNC(=O)[C@H](Cc1ccc(OCC(=O)O)cc1)NC(=O)[C@H](CC(C)C)[C@H](O)C(=O)NO [Example 2, N^2-[3S-Hydroxy-4-(N-hydroxyamino)-2R-isobutylsuccinyl]-L-(4-oxymethylcarboxy) phenylalanine-N^1-methylamide]	IC50 [6, 11]: < 50000 nM
	2340 µg/mL (≈ 6660 µM)	100 nM	CNC(=O)[C@@H](NC(=O)[C@H](CC(C)C)[C@H](O)C(=O)NO)c1ccccc1 [Example 3, N^2-[3S-Hydroxy-4-(N-hydroxyamino)-2R-isobutylsuccinyl]-L-phenylglycine-N^1-methylamide]	
	110 µg/mL (≈ 249 µM)		CNC(=O)[C@H](Cc1ccc(-c2ccccc2)cc1)NC(=O)[C@H](CC(C)C)[C@H](O)C(=O)NO [Example 4, N^2-[3S-Hydroxy-4-(N-hydroxyamino)-2R-isobutylsuccinyl]-L-(4-phenyl)-phenylalanine-N^1-methylamide]	
	140 µg/mL (≈ 350 µM)	20 nM	CC(C)C[C@@H](C(=O)NC1CCCCCCCCCCNC1=O)[C@H](O)C(=O)NO (stereo partly drawn) [Example 5, N^3-[3S-Hydroxy-4-(N-hydroxyamino)-2R-isobutylsuccinyl]amino-1-azacyclotridecan-2-one]	IC50 [6, 11]: < 50000 nM
3000 nM	330 µg/mL (≈ 929 µM)	30 nM	CNC(=O)[C@H](Cn1cccn1)NC(=O)[C@H](CC(C)C)[C@H](O)C(=O)NO [Example 6, N^2-[3S-Hydroxy-4-(N-hydroxyamino)-2R-isobutylsuccinyl]-L-3-(1-pyrazolyl)alanine-N^1-methylamide]	
500 nM	180 µg/mL (≈ 497 µM)	150 nM	CNC(=O)[C@H](CCC(=O)NO)NC(=O)[C@H](CC(C)C)[C@H](O)C(=O)NO [Example 7, N^2-[3S-Hydroxy-4-(N-hydroxyamino)-2R-isobutylsuccinyl]-L-4-(N-hydroxyamino)glutamic acid-N^1-methylamide]	
100 nM		10 nM	CNC(=O)[C@H](Cc1cccs1)NC(=O)[C@H](CC(C)C)[C@H](O)C(=O)NO [Example 8, N^2-[3S-Hydroxy-4-(N-hydroxyamino)-2R-isobutylsuccinyl]-L-3-(2-thienyl)alanine-N^1-methylamide]	
	1800 µg/mL (≈ 3730 µM)	30 nM	CC(C)C[C@@H](C(=O)N[C@@H](CC1CCCCC1)C(=O)NCCCN1CCCC1=O)[C@H](O)C(=O)NO [Example 9, N^2-[3S-Hydroxy-4-(N-hydroxyamino)-2R-isobutylsuccinyl]-L-cyclohexyl alanine-N^1-(3-(2-pyrrolidone)propyl)amide]	
300 nM	300 µg/mL (≈ 747 µM)	15 nM	CCOC(=O)[C@H](C)NC(=O)[C@H](CC(C)C)NC(=O)[C@@H](CC(=O)NO)CC(C)C [Example C1, reference compound]	reduction in swelling relative to control (paw volume day 20 vs day 13) [1]: no effect; AUC (0-6 h) in number of IC50's × hours [3]: 7.4 n IC50 's × h; AUC(0-t) at 6 h [3]: 91.7 ng·h/mL; Tmax [3]: 30 min
	< 100 µg/mL		CCOC(=O)CNC(=O)[C@H](CC(C)C)NC(=O)[C@H](CC(C)C)[C@H](CCCCN1C(=O)c2ccccc2C1=O)C(=O)NO [Example C2]	IC50 (collagenase [9]): 7 nM; AUC (0-6 h) in number of IC50's × hours [3]: 2.12 n IC50 's × h; AUC(0-t) at 6 h [3]: 5.3 ng·h/mL; Tmax [3]: 60 min; IC50 (stromelysin [10]): 70 nM

Structure (SMILES)	IC50 (stromelysin [4])	solubility [5]	IC50 (collagenase [7])	further results
CNC(=O)[C@@H](NC(=O)[C@H](CC(C)C)[C@H](O)C(=O)NO)C(C)(C)C [Example 10, N^2-[3S-Hydroxy-4-(N-hydroxyamino)-2R-isobutylsuccinyl]-L-tert-leucine-N^1-methylamide]		1400 µg/mL (≈ 4220 µM)		AUC (0-6 h) in number of IC50's × hours [8]: 190 n IC50 's × h; AUC(0-t) at 6 h (in vivo): 343 ng·h/mL; Tmax (in vivo): 30 min; IC50 ([6]; U-937, 18 h): < 50000 nM
